Drawing on patent US9884806B2, “Cyclic vinylogous amides as bromodomain inhibitors” (ICAHN SCHOOL OF MEDICINE AT MOUNT SINAI, priority 2013, dated 2018), this text covers IC50 and melting point for 19 compounds.

Data set [1] has as its target T1, BRD4_2 (Homo sapiens, UniProt O60885).
T1 construct: contains two tandem bromodomains (BrD1 and BrD2)
Briefly: Fluorescence anisotropy binding assay (competition with FITC-labeled MS417 probe), BRD4_2. To be noted: FITC-MS417 probe 80 nM, PBS pH 7.4, 1 hour, 25° C. Background: Fluorescence polarisation rises when a labelled molecule tumbles more slowly, as on binding a larger partner.

In data set [2] the test system is NO release in RAW264.7 cells. Nature of the data set: LPS-stimulated nitric oxide (NO) release in murine macrophage RAW264.7 cells (Griess reaction). It is filed as cell-based. To be noted: Mus musculus, read-out: IC50 in inhibition of LPS-induced NO release. The method, then:
LPS-Stimulated Nitric Oxide (NO) Release in Murine Macrophage RAW264.7 Cells
RAW264.7 cells was cultivated in DMEM supplemented with 10% FBS at 37° C. in a humidified atmosphere of 5% CO2. Cells in 96-well plates (0.1 ml, 3×10^5 cells/ml) were treated with the test compounds. After 30 min, all supernatants were removed and cells were treated with LPS (1 μg/ml) and the test compounds. After 24 hours, the level of nitrite was measured using Griess reaction G2930 (Promega Corp., Madison, Wis.) [see Bredt and Snyder, Ann Rev Biochem 63, 175-195 (1994)]. The test compounds dissolved in DMSO were diluted with culture medium to concentrations from 0.28 to 50,000 nM. The final concentration of DMSO was adjusted to 0.05% (v/v). The nitrite production was measured by spectrophotometry at 520 nm using EnVison 2104 Multilabel Reader (PerkinElmer, Inc., Waltham, Mass.). Each experiment was performed at least in triplicate and plotted using Prism.
In general terms: The Griess reaction detects nitrite, a stable product of nitric oxide.

The subject of data set [3] is mRNA transcript levels of cytokines IL-6, IL-1β and TNFα in RAW264.7 cells. Nature of the data set: LPS-induced transcriptional activation of cytokines in murine macrophage cells (quantitative PCR). It is filed as cell-based. To be noted: Mus musculus. The method, then: LPS-Induced Transcriptional Activation of Cytokines in Murine Macrophage Cells RAW264.7 cells were cultivated with or without a treatment of the compounds as described above. Total RNA was isolated the cells using TRIzol reagent (Gibco, Grand Island, N.Y.) for homogenization. The concentration and integrity of RNA were determined by measuring absorbance at a 260 nm/280 nm ratio. Quantitative PCR was performed to determine the mRNA transcript levels of cytokines IL-6, IL-1β and TNFα with specific primers for these target genes. Each experiment was performed at least in triplicate, and plotted using Prim, and an IC50 value was calculated.

For data set [4], the target named is T2, first bromodomain (BrD1) of human BRD4 (Homo sapiens, UniProt O60885).
T2 construct: the first bromodomain (BrD1) of human BRD4; poly-His (cleaved yes); made in house
Briefly: Fluorescence anisotropy binding assay (competition with FITC-labeled MS417 probe). To be noted: FITC-MS417 probe 80 nM, PBS pH 7.4, 1 hour, 25° C., read-out: BRD4_1 IC50. The essentials: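 BRD4 BrD1 (His tag removed by thrombin) at 0.25 to 1 μM competed against 80 nM FITC-labeled MS417 in PBS pH 7.4. Anisotropy read after 1 hour at 25° C. Ki derived from fitted IC50 by Nikolovska-Coleska-corrected Cheng-Prusoff equation, one-site competitive model.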

Where [5] appears, read: RAW264.7 cells, LPS 1 μg/ml, 24 hours, nitrite by Griess reaction.
The mark [6] stands for this setting: RAW264.7 cells, LPS, quantitative PCR of mRNA transcript levels, read-out: IC50 in inhibition of transcriptional activation of the cytokines IL-6, IL-1β and TNFα.
Setting [7] is: RAW264.7, read-out: IC50 in inhibition of transcriptional activation of the cytokines IL-6, IL-1β and TNFα.

By IC50 is commonly meant the concentration at which inhibition is half-maximal. For orientation: melting point means the temperature, or range, at which the solid turns liquid.

Each structure is given as a SMILES string. Where two headings read alike, the source gives them in different places. Where only a bound is given, the exact number is not on record here.

Take `CC1=C(Nc2cc(C(=O)O)ccc2Cl)CCCC1=O` [Example 01-36, 4-chloro-3((2-methyl-3-oxocyclohex-1-en-1-yl)amino)benzoic acid]: the melting point was in the range of 232 to 235 °C. Also, the IC50 in data set [1] is > 10 µM. In addition, the IC50 in data set [2] (setting [5]) fell in the range of 100 to 5000 nM. For the same compound, the IC50 in data set [3] (setting [6]) was 100 to 5000 nM. The half-maximal inhibitory concentration (IC50) in data set [4] was > 10000 nM.
For the compound `CC1=C(Nc2ccc(C(=O)Nc3cccc4ccccc34)cc2Cl)CCC1=O` [Example 04-15, 3-chloro-4-((2-methyl-3-oxocyclopent-1-en-1-yl)amino)-N-(naphthalen-1-yl)-benzamide], the concentration for half-maximal inhibition (IC50) was 1 to 10 µM in data set [1]; 100 to 5000 nM in data set [2] (RAW264.7, 24 h); 100 to 5000 nM in data set [3] (setting [7]); < 1000 nM in data set [4].
Consider `COc1ccccc1NC(=O)c1ccc(NC2=C(C)C(=O)CC2)c(Cl)c1` [Example 04-17, 3-chloro-N-(2-methoxyphenyl)-4-((2-methyl-3-oxocyclopent-1-en-1-yl)amino)benzamide], for which the IC50 in data set [1] is 1 to 10 µM; in data set [2] (setting [5]) it was 100 to 5000 nM; in data set [3] (setting [6]), 100 to 5000 nM; in data set [4], < 1000 nM.
For the compound `CC1=C(Nc2cc(C(=O)Nc3ccccc3C)ccc2Cl)CCC1=O` [Example 04-89, 4-chloro-3-((2-methyl-3-oxocyclopent-1-en-1-yl)amino)-N-(o-tolyl)benzamide], the 50% inhibitory concentration (IC50) was 1 to 10 µM in data set [1]; 100 to 5000 nM in data set [2] (RAW264.7, 24 h); 100 to 5000 nM in data set [3] (setting [7]); < 1000 nM in data set [4].
As to `CC1=C(Nc2cc(C(=O)Nc3ccccc3C)ccc2Cl)CCCC1=O` [Example 04-91, 4-chloro-3-((2-methyl-3-oxocyclohex-1-en-1-yl)amino)-N-(o-tolyl)benzamide], the IC50 in data set [1] fell in the range of 1 to 10 µM; in data set [2] (setting [5]) it was 100 to 5000 nM; in data set [3] (setting [6]), 100 to 5000 nM; in data set [4] it was 1000 to 10000 nM.
For `COc1ccc(NC(=O)Cc2cccc(NC3=C(C)C(=O)CCC3)c2)cc1` [Example 04-98, N-(4-methoxyphenyl)-2-(3-((2-methyl-3-oxocyclohex-1-en-1-yl)amino)phenyl)-acetamide], the half-maximal inhibitory concentration (IC50) is > 10 µM in data set [1]; 100 to 5000 nM in data set [2] (RAW264.7, 24 h); 100 to 5000 nM in data set [3] (setting [7]); > 10000 nM in data set [4].
For `CC1=C(Nc2ccc(C(=O)Nc3ccccc3C)cc2Cl)CCCC1=O` [Example 05-15, 3-chloro-4-((2-methyl-3-oxocyclohex-1-en-1-yl)amino)-N-(o-tolyl)benzamide], the half-maximal inhibitory concentration (IC50) in data set [1] was 1 to 10 µM; in data set [2] (setting [5]) it was 100 to 5000 nM; in data set [3] (setting [6]), 100 to 5000 nM; in data set [4], < 1000 nM.
Take `CC1=C(Nc2cc(NCCc3ccccc3C)ccc2Cl)CCCC1=O` [Example 05-73, 3-((2-chloro-5-((2-methylphenethyl)amino)phenyl)amino)-2-methylcyclohex-2-enone]: the melting point was in the range of 85 to 87 °C. The IC50 in data set [1] fell in the range of 1 to 10 µM. In data set [4], the IC50 fell in the range of 1000 to 10000 nM.
The compound `CC1=C(Nc2cc(NCc3ccccc3F)ccc2Cl)CCCC1=O` [Example 05-74, 3-((2-chloro-5-((2-fluorobenzyl)amino)phenyl)amino)-2-methylcyclohex-2-enone] registered a melting point of 103 to 105 °C. Besides, the IC50 in data set [1] is < 1 µM. In addition, the IC50 in data set [4] is < 1000 nM.
The compound `CC1=C(Nc2cc(NCc3cccc(F)c3C)ccc2Cl)CCCC1=O` [Example 05-75, 3-((2-chloro-5-((3-fluoro-2-methylbenzyl)amino)phenyl)amino)-2-methylcyclohex-2-enone] yielded a melting point of 160 to 162 °C. In data set [1], this compound displayed an IC50 of 1 to 10 µM. In data set [4], the IC50 is < 1000 nM.
Turning to `CC1=C(Nc2ccc(NCc3ccccc3C)cc2Cl)CCCC1=O` [Example 05-76, 3-((2-chloro-4-((2-methylbenzyl)amino)phenyl)amino)-2-methylcyclohex-2-enone], the melting point was 220 to 221 °C. For the same compound, the half-inhibitory concentration (IC50) in data set [1] was > 10 µM. Besides, in data set [4], the 50% inhibitory concentration (IC50) lay in the range of 1000 to 10000 nM.
Compound `CC1=C(Nc2ccc(NCCc3ccccc3C)cc2Cl)CCCC1=O` [Example 05-77, 3-((2-chloro-4-((2-methylphenethyl)amino)phenyl)amino)-2-methyl-cyclohex-2-enone] showed a melting point of 160 to 162 °C. The same compound registered an IC50 in data set [1] of 1 to 10 µM. Further, the IC50 in data set [4] lay within 1000 to 10000 nM.
In turn, `CC1=C(Nc2cccc(NCc3ccccc3C)c2Cl)CCCC1=O` [Example 05-78, 3-((2-chloro-3-((2-methylbenzyl)amino)phenyl)amino)-2-methylcyclohex-2-enone] returned a melting point of 132 to 135 °C. Also, in data set [1], the 50% inhibitory concentration (IC50) was 1 to 10 µM. In data set [4], the half-inhibitory concentration (IC50) is < 1000 nM.
Turning to `CC1=C(Nc2cccc(NCCc3ccccc3C)c2Cl)CCCC1=O` [Example 05-79, 3-((2-chloro-3-((2-methylphenethyl)amino)phenyl)amino)-2-methylcyclohex-2-enone], the melting point lay within 157 to 160 °C. The IC50 in data set [1] is > 10 µM. For the same compound, the 50% inhibitory concentration (IC50) in data set [4] lay in the range of 1000 to 10000 nM.
In turn, `CC1=C(Nc2cc(Nc3ccccc3C)ccc2Cl)CCCC1=O` [Example 05-81, 3-((2-chloro-5-(o-tolylamino)phenyl)amino)-2-methylcyclohex-2-enone] returned a melting point of 165 to 168 °C. This compound registered a 50% inhibitory concentration (IC50) in data set [1] of 1 to 10 µM. In addition, in data set [4], the IC50 is < 1000 nM.
In the same order, the values of `CC1=C(Nc2ccc(Nc3ccccc3C)cc2Cl)CCCC1=O` [Example 05-82, 3-((2-chloro-4-(o-tolylamino)phenyl)amino)-2-methylcyclohex-2-enone] are 68 to 70 °C, > 10 µM and < 1000 nM.
In turn, `CC1=C(Nc2cc(NC(=O)/C=C\C(=O)O)ccc2Cl)CCCC1=O` [Example 05-83, (Z)-4-((4-chloro-3-((2-methyl-3-oxocyclohex-1-en-1-yl)amino)phenyl)-amino)-4-oxobut-2-enoic acid] returned a melting point of 182 to 185 °C. Also, the IC50 in data set [1] is > 10 µM. Besides, in data set [4], the 50% inhibitory concentration (IC50) was in the range of 1000 to 10000 nM.
In the same order, the values of `CC1=C(Nc2ccc(NC(=O)/C=C\C(=O)O)cc2Cl)CCCC1=O` [Example 05-84, (Z)-4-((3-chloro-4-((2-methyl-3-oxocyclohex-1-en-1-yl)amino)phenyl)-amino)-4-oxobut-2-enoic acid] are 200 to 202 °C, > 10 µM and 1000 to 10000 nM.
Regarding `CC1=C(Nc2cccc(-c3cn(Cc4ccccc4)nn3)c2)CCC1=O` [Example 06-04, 3-((3-(1-benzyl-1H-1,2,3-triazol-4-yl)phenyl)amino)-2-methylcyclopent-2-enone], the IC50 in data set [1] was 1 to 10 µM; in data set [2] (setting [5]), 100 to 5000 nM; in data set [3] (setting [6]), 100 to 5000 nM; in data set [4], < 1000 nM.
